Consider two molecules from EP0097071A1, “Benzhydryl sulfinylacetamide derivatives and their therapeutical use” (LABORATOIRE L. LAFON Société anonyme dite:, priority 1982, dated 1983).

Some results are limits rather than exact numbers.

Data set [1] deals with souris. Put plainly: Interaction with reserpine. It counts as in vivo. As to conditions: 256 mg/kg i.p. Here is the method: (§1) On a résumé ci-après les résultats des essais pharmacologiques qui ont été entrepris avec les produits selon la présente addition. Dans ces essais, les produits de formule I à étudier ont été administrés par voie intrapéritonéale, en suspension dans une solution aqueuse de gomme arabique, sous un volume de 20 ml/kg chez la souris mâle et sous un volume de 5 ml/kg chez le rat mâle.
Quatre heures après l'injection intrapéritonéale de 2,5 mg/kg de réserpine, des lots de 6 souris reçoivent le CRL 40933.

The subject of data set [2] is souris mâle. Put plainly: Toxicity, DL-0. Type of data set: in vivo. Particulars: i.p. Here is the method:
as §1
La toxicité a été étudiée chez la souris mâle. Les résultats relatifs à la DL-0 (dose minimale non mortelle) sont donnés dans le tableau II ci-après.

Data set [3] deals with souris. The data set is described as follows: Spontaneous motility (actimeter). Type of data set: in vivo. Here is the method:
as §1
Une demi-heure, après avoir reçu le CRL 40933, les souris (6 par dose, 12 témoins) sont placées en actimètre où leur motilité est enregistrée pendant 30 min.

The subject of data set [4] is rats. Put plainly: Interaction with amphetamine (stereotypies). Type of data set: in vivo. As to conditions: rat; 8 mg/kg à 128 mg/kg i.p. As to the method: as §1
L'amphétamine (2 mg/kg)est injectée par voie intrapéritonéale à des lots de 6 rats, 30 min après l'administration de CRL 40933.

Data set [5] concerns souris mâles. The data set is described as follows: Global behaviour and reactivities, mouse. It counts as in vivo. As to conditions: souris. As to the method: as §1
(§2) Pour apprécier le comportement global et les réactivités, des lots de six animaux (souris mâles ou rats mâles) ont été observés avant administration de chaque produit, puis 15 min, 30 min, 1 h, 2 h, 3 h et 24 h après administration de chaque produit. Les résultats sont consignés dans le tableau III ci-après, […]

Data set [6] relates to souris. The data set is described as follows: Four plates test. Type of data set: in vivo. Particulars: 0,5 h after administration, dose not stated. Here is the method:
as §1
(§3) Les essais sont effectués sur des lots de 10 souris (par dose) 0,5 h après l'administration du CRL 40933.

Data set [7] has as its system souris. Put plainly: Interaction with oxotremorine. Type of data set: in vivo. As to the method: as §1
Le CRL 40933 est administré à des lots de 6 souris 0,5 h avant l'injection intrapéritonéale de 0,5 mg/kg d'oxotrémorine.

Data set [8] relates to souris. The data set is described as follows: Interaction with barbital (sleep). It counts as in vivo. As to conditions: 256 mg/kg i.p. Here is the method: as §1
Une demi-heure après l'administration de CRL 40933, des lots de 10 souris reçoivent une injection intrapéritonéale de 220 mg/kg de barbital.

Data set [9] has as its system souris. The data set is described as follows: Electroshock. Type of data set: in vivo. As to conditions: 64 mg/kg à 256 mg/kg i.p. Here is the method:
as §1, §3

Data set [10] deals with souris mâle. The data set is described as follows: Pentobarbital-induced sleep duration. Type of data set: in vivo. An excerpt: Les composés selon l'invention se distinguent du benzhydrylsulfinylacétamide (CRL 40476) précité par une différence d'action vis-à-vis du sommeil barbiturique. […]. Cette différence d'action qui est intéressante sur le plan thérapeutique est illustrée par le tableau IV

For data set [11], the system named is souris. The data set is described as follows: Traction test. Type of data set: in vivo. As to conditions: 0,5 h after administration, dose not stated. As to the method:
as §1, §3

The test system of data set [12] is souris. Put plainly: Motility reduced by hypoxic aggression (acute hypobaric anoxia). Type of data set: in vivo. Here is the method:
as §1
Une demi-heure après avoir reçu le CRL 40933, les souris (10 par dose, 20 témoins) sont soumises à une anoxie hypobare aiguë [dépression de 600 mm Hg (soit environ 8 x 10^4 pascals) en 90 s, puis détente de 45 s], puis elles sont placées en actimètre où leur motilité est enregistrée pendant 10 min.

The subject of data set [13] is souris. The data set is described as follows: Asphyxic anoxia (gallamine triethiodide). It counts as in vivo. As to conditions: 64 mg/kg et 256 mg/kg i.p. Here is the method: as §1
Des lots de 10 souris par dose reçoivent le CRL 40933 30 min avant l'administration intrapéritonéale de 32 mg/kg de triiodoéthylate de gallamine.

For data set [14], the system named is souris. Put plainly: Interaction with apomorphine, mouse. It counts as in vivo. As to conditions: dose not stated. As to the method: as §1
Des lots de 6 souris par dose reçoivent le CRL 40933 0,5 h avant l'injection sous-cutanée d'apomorphine administrée à la dose de 1 ou 16 mg/kg.

In data set [15] the test system is SNC. The data set is described as follows: Essential activity on the CNS (Tableau I and conclusions of the neuropsychopharmacological study). Type of data set: in vivo. Particulars: in vivo. The text has this: Dans le tableau I ci-après, on a consigné un certain nombre de composés selon la formule I de façon nullement limitative, en mentionnant l'activité essentielle sur le SNC.
Les composés de formule I agissent tous sur le SNC. Les produits des exemples 1-3 et 7-8 sont des agents stimulants, en revanche les produits des exemples 4-6 sont des agents sédatifs.

For data set [16], the system named is souris. The data set is described as follows: Intergroup aggressiveness. Type of data set: in vivo. Particulars: for agressivité intergroupes (nombre de combats): dose not stated. As to the method: as §1
Après avoir séjourné pendant 3 semaines dans chacune des moitiés d'une cage séparées par une cloison opaque, des groupes de 3 souris reçoivent le CRL 40933. 30 min plus tard, les deux groupes d'une même cage sont réunis par retrait de la cloison et on note le nombre de combats qui surviennent en 10 min.

Data set [17] deals with rat. The data set is described as follows: Interaction with apomorphine, rat. Particulars: apomorphine 0,5 mg/kg s.c., dose not stated. Type of data set: in vivo. Here is the method: as §1
Le CRL 40933 est administré à des lots de 6 rats 0,5 h avant l'injection sous-cutanée de 0,5 mg/kg d'apomorphine.

For data set [18], the system named is souris. Put plainly: Behavioural despair (forced immersion). Type of data set: in vivo. Particulars: souris; dès la dose de 16 mg/kg i.p. As to the method: as §1
Une demi-heure après avoir reçu le CRL 40933, des lots de 10 souris par dose sont placés dans un espace restreint rempli d'eau sur une hauteur de 6 cm; on note la durée d'immobilité entre la 2e et la 6e minute suivant l'immersion.

Data set [19] has as its system souris. The data set is described as follows: Motility reduced by habituation to the enclosure. Type of data set: in vivo. As to the method: as §1
Après 18 h de séjour dans les actimètres, les souris (6 par dose, 12 témoins) reçoivent le CRL 40933. Elles sont aussitôt replacées dans leurs enceintes respectives et, 30 min plus tard, on enregistre leur motilité pendant 30 min.

The subject of data set [20] is rats mâles. The data set is described as follows: Global behaviour and reactivities, rat. It counts as in vivo. As to conditions: 128 mg/kg i.p. As to the method: as §1, §2
The test system of data set [21] is homme. Put plainly: Clinical trials. It counts as in vivo. The text has this: Les études cliniques ont porté sur les troubles de la vigilance, de l'éveil et des états confusionnels, d'une part, et sur les troubles de l'affectivité, du contact et des dépressions, d'autre part.
Data set [22] in a line: Solubility. Particulars: water.

With `CC(C)NC(=O)C[S+]([O-])C(c1ccccc1)c1ccccc1` (centres unmarked) [Exemple 2], the “ptôsis réserpinique” value in data set [1] was “diminue très modérément”. The DL-O result in data set [2] is listed as “supérieure à 512 mg/kg”. The “motilité spontanée” value in data set [3] (256 mg/kg i.p.) was “hypermotilité nette”. Further, the “stéréotypies amphétaminiques” value in data set [4] was “semble potentialiser faiblement”. In data set [5] (256 mg/kg i.p., pendant 0,5 h), the “hypothermie modérée” value is -1 °C. In [5] (512 mg/kg i.p.), the “Observations (comportement global et réactivités)” value (from here on “Observations”) is “respiration déprimée, dyspnée, sédation, diminution de la réactivité au toucher, puis excitation au bout de 3 h” and the mortalité result is reported as “pas de mortalité”. Also, the “Observations” value in [5] (128 mg/kg i.p.) was “sédation, puis excitation 3 h après admi-nistration”. For the same molecule, the “Observations” value in data set [5] (256 mg/kg i.p.) was “sédation pendant 0,5 h avec diminution de la fréquence respiratoire - hyporéactivité au toucher pendant 2 h - hypothermie modérée (-1°C) pendant 0,5 h - excitation 3 h après administration”. Also, the “nombre de passages punis” value in [6] was “n'entraîne pas d'augmentation”. Also, the “signes de stimulation cholinergique périphérique, notamment la défécation” value in data set [7] (64 mg/kg à 256 mg/kg i.p.) is “semble entraîner une diminution”. Moreover, the “intensité des tremblements provoqués par l'oxotrémorine” value in data set [7] (256 mg/kg i.p.) is recorded as “semble diminuer modérément”. Besides, the “action hypothermisante de l'oxotrémorine” value in data set [7] (dose not stated) is reported as “ne modifie pratiquement pas”. Also, the “durée du sommeil barbiturique” value in data set [8] is recorded as “diminue nettement”. For the same molecule, in data set [9], the “effets convulsivants de l'électrochoc” value is on record as “s'oppose”. The “Action sur la durée du sommeil induit par le pentobarbital (50 mg/kg i.p.) effet” value in [10] (dose 256 mg/kg i.p., 0,5 h before pentobarbital) is listed as “(a)”. For the same molecule, in data set [11], the “déficit moteur (traction)” value was “ne provoque pas de déficit moteur majeur”. Moreover, in [12] (64 mg/kg et surtout 256 mg/kg i.p.), the “récupération motrice (motilité réduite par agression hypoxique)” value is given as “amélioration nette”. Besides, in data set [13], the “apparition des convulsions anoxiques provoquées par le triiodoéthylate de gallamine” value is listed as “retarde modérément”. For the same molecule, in data set [14], the “comportement de verticalisation et stéréotypies (apomorphine)” value is recorded as “laisse inchangés” and the “hypothermie produite par l'apomorphine” value is “laisse inchangés”. Moreover, in data set [15], the “Activité sur le SNC” value is given as “stimulant” and the “conclusion of the neuropsychopharmacological study: main type of CNS effect” value is listed as “agent psychotrope”. The “agressivité intergroupes (nombre de combats)” value in data set [16] is recorded as “diminue très modérément”. Further, in data set [17], the “stéréotypies induites par l'apomorphine” value is “ne sont pas modifiées”. In addition, the “durée d'immobilité” value in data set [18] is on record as “diminue nettement”. For the same molecule, the “activité chez la souris habituée à son enceinte” value in data set [19] (4 mg/kg, 64 mg/kg et 256 mg/kg i.p.) is “semble provoquer une reprise de l'activité”. In addition, in data set [19] (intermediate dose 16 mg/kg i.p.), the “reprise de l'activité chez la souris habituée à son enceinte” value is on record as “n'est pas observé”. Also, in data set [20], the “Observations” value is “mydriase pendant 3 h”. In addition, the “action contre l'énurésie” value in data set [21] is recorded as “agissent efficacement”. The “résultats en tant que médicaments de l'éveil” value in data set [21] (notamment vieillard, gélules ou comprimés de 100 à 200 mg, 1 à 3 par jour) is given as “excellents résultats”.

Take `O=C(C[S+]([O-])C(c1ccccc1)c1ccccc1)N1CCCCC1` (centres unmarked) [Exemple 5, N-(benzhydrylsulfinylacétyl)-pipéridine]: in data set [2], the DL-O result was “supérieure à 1024 mg/kg”. Moreover, in data set [3] (all doses used (8 mg/kg à 256 mg/kg), intensity increasing with dose), the “motilité spontanée” value is recorded as “hypomotilité”. In addition, the solubility in [22] is less than 1000 µg/mL. In addition, in data set [10] (dose 128 mg/kg i.p., 0,5 h before pentobarbital), the “Action sur la durée du sommeil induit par le pentobarbital (50 mg/kg i.p.) effet” value was “(a)”. Besides, the “mobilité réduite (agression hypoxique)” value in data set [12] (dose not stated) was “n'agit pas nettement”. In data set [15], the “Activité sur le SNC” value is given as “sédatif” and the “conclusion of the neuropsychopharmacological study: main type of CNS effect” value was “type sédatif”. In data set [16] (32 mg/kg i.p.), the agressivité intergroupes entry is listed as “diminue de moitié”. For the same molecule, the “agressivité intergroupes (nombre de combats)” value in [16] is “effet antiagressif”. Moreover, the “mobilité réduite (habituation à l'enceinte)” value in data set [19] (souris, dose not stated) was “n'agit pas nettement”.
